Where two headings read alike, the source gives them in different places. Starred links: 1 amine or outer side, 2 acyl side, 3 side chain; linkers in the order of their positions; H or OH if unused. Non-standard residues stand in square brackets, D forms with d. Residues, ends and D or L forms follow the SMILES beside them. ξ: configuration not given here. *: point of attachment. dNMe2Nal = CN[C@H](Cc1ccc2ccccc2c1)C(=O)O; dPhe(4-Cl) = N[C@H](Cc1ccc(Cl)cc1)C(=O)O; 2Nal = N[C@@H](Cc1ccc2ccccc2c1)C(=O)O; d2Nal = N[C@H](Cc1ccc2ccccc2c1)C(=O)O; ξNMe2Nal = CNC(Cc1ccc2ccccc2c1)C(=O)O; d(hPhe) = N[C@H](CCc1ccccc1)C(=O)O; β3hAib = CC(C)(CC(=O)[*:2])N[*:1]; ξ2Nal = NC(Cc1ccc2ccccc2c1)C(=O)O; NMeF = CN[C@@H](Cc1ccccc1)C(=O)O; NMeGABA = CN(CCCC(=O)[*:2])[*:1]; Isonicotinoyl = O=C(c1ccncc1)*; Morpholide = C1CN(*)CCO1; Inp = O=C(O)C1CCNCC1; ξK = NCCCCC(N)C(=O)O
Assays:
[1] = molecular target: rat pituitary cells (Rattus norvegicus, UniProt O08725); conditions: read-out: PIT Cell EC50, GH release, 15 min incubation
Chain of rat pituitary cells (O08725 whole entry): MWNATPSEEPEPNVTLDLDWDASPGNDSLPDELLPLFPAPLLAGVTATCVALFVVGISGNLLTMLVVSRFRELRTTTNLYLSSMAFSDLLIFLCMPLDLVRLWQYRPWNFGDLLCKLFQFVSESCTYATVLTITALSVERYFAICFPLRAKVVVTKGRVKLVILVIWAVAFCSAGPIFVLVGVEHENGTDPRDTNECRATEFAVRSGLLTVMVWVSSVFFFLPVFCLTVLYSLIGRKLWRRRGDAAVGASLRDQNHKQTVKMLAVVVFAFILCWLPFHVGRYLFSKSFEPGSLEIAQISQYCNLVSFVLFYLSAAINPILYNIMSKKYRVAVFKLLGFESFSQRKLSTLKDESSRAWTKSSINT
Procedure, shortened: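 Primary rat anterior pituitary cells, cultured three days in DME low glucose/10% FBS, were washed, pre-incubated twice for 15 min, then challenged 15 min with test compounds (DMSO ≤0.1%) at 37 °C. Released GH was measured by two-site ELISA; EC50 came from 4-parameter fits, mean of three to four independent determinations.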

[2] = system: growth hormone secretion; experiment: GHRP induced growth hormone secretion, intravenous administration (Rat IV); format: in vivo; conditions: iv injection, serum GH 10 min after injection
Procedure, shortened: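 Female Sprague Dawley rats (24-30 days, 50-90 g) under intraperitoneal pentobarbitone received graded intravenous tail-vein peptide doses in pH 5.0 sodium acetate/mannitol buffer 20 min post-anaesthesia. Blood by cardiac puncture 10 min after dosing; serum GH measured by rat GH ELISA in duplicate.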

[3] = Table IV, formula III compounds
[4] = Table III, formula IV compounds

SMILES	EC50 [1, 3] [nM]	RAT IV ED50 ([2]; Table IV) [µg]	EC50 [1, 4] [nM]	RAT IV ED50 ([2]; Table III) [µg]	also measured
NC(=O)[C@H](Cc1ccccc1)NC(=O)[C@@H](CCc1ccccc1)NC(=O)[C@@H](Cc1ccc2ccccc2c1)NC(=O)C1CCNCC1 [(inip) b hf F amide] (H-[Inp][d2Nal][d(hPhe)]F-NH2)	14	10			
O=C(N[C@H](Cc1ccc2ccccc2c1)C(=O)NCc1ccc2ccccc2c1)C1CCNCC1 [(inip) b man, (inip)-DβNal-(2-aminomethylnaphthyl) amide]					EC50 ([1]; Table V, formula II compounds): 9 nM; RAT IV ED50 ([2]; Table V): 500 µg
CN(C(=O)[C@@H](Cc1ccc2ccccc2c1)NC(=O)C1CCNCC1)[C@@H](CN)Cc1ccc2ccccc2c1 [(inip) b mbm]					EC50 ([1]; Table V, formula II compounds): 7 nM; RAT IV ED50 ([2]; Table V): 20 µg
CN(CCc1ccc2ccccc2c1)C(=O)[C@@H](Cc1ccc2ccccc2c1)NC(=O)C1CCNCC1 [(inip) b men, (inip)-DβNal-[N-methyl, N-1-{2-(2-naphthyl)ethyl}] amide]					EC50 ([1]; Table V, formula II compounds): 12 nM; RAT IV ED50 ([2]; Table V): 500 µg
CN(C(=O)[C@@H](Cc1ccc2ccccc2c1)NC(=O)C1CCNCC1)[C@@H](CO)Cc1ccc2ccccc2c1 [(inip) b nbol, (inip)-DβNal-(N-Methyl-D-β-naphthylalanol)]					EC50 ([1]; Table V, formula II compounds): 3 nM; RAT IV ED50 ([2]; Table V): 20 µg
CN(C(=O)C(Cc1ccc2ccccc2c1)NC(=O)C1CCNCC1)[C@H](Cc1ccc2ccccc2c1)C(=O)N[C@@H](Cc1ccccc1)C(=O)NC(CCCCN)C(N)=O (stereo partly drawn) [(inip) b nmb F K amide, (inip)-DβNal-(N-Me-DβNal)-Phe-Lys-amide] (H-[Inp][ξ2Nal][dNMe2Nal]F[ξK]-NH2)			0.2	1	
CN(C(=O)[C@@H](Cc1ccc2ccccc2c1)NC(=O)C1CCNCC1)[C@H](Cc1ccc2ccccc2c1)C(=O)N[C@@H](Cc1ccccc1)C(N)=O [(inip) b nmb F amide] (H-[Inp][d2Nal][dNMe2Nal]F-NH2)	1	5			
CN(C(=O)[C@@H](Cc1ccc2ccccc2c1)NC(=O)C1CCNCC1)[C@H](Cc1ccc2ccccc2c1)C(=O)NC1CCNCC1 [(inip) b nmb api, (inip)-DβNal-(N-Me-DβNal)-N-(4-piperidinyl) amide]	0.5	2			
O=C(N[C@H](Cc1ccc2ccccc2c1)C(=O)NCCc1ccc2ccccc2c1)C1CCNCC1 [(inip) b npe, (inip)-DβNal-[N-1-{2-(2-naphthyl)ethyl}] amide]					EC50 ([1]; Table V, formula II compounds): 11 nM; RAT IV ED50 ([2]; Table V): 500 µg
O=C(N[C@H](Cc1ccc2ccccc2c1)C(=O)NCCc1c[nH]c2ccccc12)C1CCNCC1 [(inip) b tra, (inip)-DβNal-[N-tryptaminyl] amide]					EC50 ([1]; Table V, formula II compounds): 100 nM; RAT IV ED50 ([2]; Table V): 100 µg
NC(=O)[C@H](Cc1ccccc1)NC(=O)[C@@H](Cc1c[nH]c2ccccc12)NC(=O)[C@@H](Cc1ccc2ccccc2c1)NC(=O)C1CCNCC1 [(inip) b w F amide, (inip)-DβNal-(D-Trp)-Phe-amide] (H-[Inp][d2Nal][dW]F-NH2)	0.1	0.67			
CN(C(=O)[C@@H](Cc1ccc2ccccc2c1)NC(=O)[C@@H](Cc1ccc2ccccc2c1)NC(=O)C1CCNCC1)[C@@H](Cc1ccccc1)C(N)=O [(inip) bb nmF amide] (H-[Inp][d2Nal][d2Nal][NMeF]-NH2)	0.6	5			
NC(=O)[C@H](Cc1ccccc1)NC(=O)[C@@H](Cc1ccc2ccccc2c1)NC(=O)[C@@H](Cc1ccc(Cl)cc1)NC(=O)C1CCNCC1 [(inip) chf b F amide] (H-[Inp][dPhe(4-Cl)][d2Nal]F-NH2)	2.2	10			
CN(C(=O)C1CCNCC1)[C@H](Cc1ccc2ccccc2c1)C(=O)N[C@@H](Cc1ccc2ccccc2c1)C(=O)N[C@@H](Cc1ccccc1)C(=O)O [(inip) nmb B F acid] (H-[Inp][dNMe2Nal][2Nal]F-OH)	7	100			
CN(C(=O)C1CCNCC1)C(Cc1ccc2ccccc2c1)C(=O)N[C@H](Cc1ccc2ccccc2c1)C(=O)N[C@@H](Cc1ccccc1)C(=O)NC(CCCCN)C(N)=O (stereo partly drawn) [(inip) nmb b F K amide, (inip)-(N-Me-DβNal)-DβNal-Phe-Lys-amide] (H-[Inp][ξNMe2Nal][d2Nal]F[ξK]-NH2)			0.27	0.4	
COC(=O)[C@H](Cc1ccccc1)NC(=O)[C@@H](Cc1ccc2ccccc2c1)NC(=O)[C@@H](Cc1ccc2ccccc2c1)N(C)C(=O)C1CCNCC1 [(inip) nmb b F Me ester] (H-[Inp][dNMe2Nal][d2Nal]F-OMe)	1.4	10			
CN(C(=O)C1CCNCC1)[C@H](Cc1ccc2ccccc2c1)C(=O)N[C@H](Cc1ccc2ccccc2c1)C(=O)N[C@@H](Cc1ccccc1)C(=O)O [(inip) nmb b F acid] (H-[Inp][dNMe2Nal][d2Nal]F-OH)	1.4	5			
CN(C(=O)C1CCNCC1)[C@H](Cc1ccc2ccccc2c1)C(=O)N[C@H](Cc1ccc2ccccc2c1)C(=O)N[C@@H](Cc1ccccc1)C(N)=O [(inip) nmb b F amide] (H-[Inp][dNMe2Nal][d2Nal]F-NH2)	0.5	5			
CN(C(=O)C1CCNCC1)[C@H](Cc1ccc2ccccc2c1)C(=O)N[C@H](Cc1ccc2ccccc2c1)C(=O)N[C@@H](Cc1ccccc1)C(=O)N1CCOCC1 [(inip) nmb b F mor] (H-[Inp][dNMe2Nal][d2Nal]F-Morpholide)			0.8	10	
CN(C(=O)C1CCNCC1)C(Cc1ccc2ccccc2c1)C(=O)N[C@H](Cc1c[nH]c2ccccc12)C(=O)N[C@@H](Cc1ccccc1)C(=O)NC(CCCCN)C(N)=O (stereo partly drawn) [(inip) nmb w F K amide, (inip)-(N-Me-DβNal)-DTrp-Phe-Lys-amide] (H-[Inp][ξNMe2Nal][dW]F[ξK]-NH2)			0.2	0.2	
NC(=O)[C@H](Cc1ccccc1)NC(=O)[C@@H](Cc1c[nH]c2ccccc12)NC(=O)[C@@H](Cc1c[nH]c2ccccc12)NC(=O)C1CCNCC1 [(inip) w w F amide] (H-[Inp][dW][dW]F-NH2)	0.9	5			
O=C(N[C@H](Cc1c[nH]c2ccccc12)C(=O)N[C@@H](CO)Cc1c[nH]c2ccccc12)C1CCNCC1 [(inip) w wol]					EC50 ([1]; Table V, formula II compounds): 4 nM; RAT IV ED50 ([2]; Table V): 20 µg
CNCCCC(=O)NC(Cc1ccc2ccccc2c1)C(=O)N[C@H](Cc1ccc2ccccc2c1)C(=O)N[C@@H](Cc1ccccc1)C(=O)NC(CCCCN)C(N)=O (stereo partly drawn) [(mab) b b F K amide, [4-(N-methylamino)butanoyl]-DβNal-DβNal-Phe-Lys-amide] (NMeGABA-[ξ2Nal][d2Nal]F[ξK]-NH2)			1.4	0.7	
CC(C)(N)CC(=O)N[C@H](Cc1ccc2ccccc2c1)C(=O)N[C@H](Cc1ccc2ccccc2c1)C(=O)N[C@@H](Cc1ccccc1)C(=O)N[C@@H](CCCCN)C(N)=O [(nba) b b F K amide] (β3hAib-[d2Nal][d2Nal]FK-NH2)			2.8	100	
NCCCC[C@H](NC(=O)[C@H](Cc1ccccc1)NC(=O)[C@@H](Cc1ccc2ccccc2c1)NC(=O)[C@@H](Cc1ccc2ccccc2c1)NC(=O)c1ccncc1)C(N)=O [(pyc) b b F K amide] (Isonicotinoyl-[d2Nal][d2Nal]FK-NH2)			> 300	200	
C[C@H](N)C(=O)N[C@H](Cc1ccc2ccccc2c1)C(=O)N[C@H](Cc1ccc2ccccc2c1)C(=O)N[C@@H](Cc1ccccc1)C(=O)N[C@@H](CCCCN)C(N)=O [A b b F K amide] (H-A[d2Nal][d2Nal]FK-NH2)			2.1	10	
CC(=O)N[C@H](Cc1ccc2ccccc2c1)C(=O)N[C@@H](Cc1ccc2ccccc2c1)C(=O)N[C@@H](Cc1ccc2ccccc2c1)C(=O)NCCCN [Ac b B B ram, Acetyl-DβNal-βNal-βNal-[N-(3-aminopropyl)] amide]					EC50 ([1]; Table VI, retroinverso compounds of formula V): 4.8 nM; RAT IV ED50 ([2]; Table VI): 100 µg
NCCCC[C@H](NC(=O)[C@H](Cc1ccccc1)NC(=O)[C@@H](Cc1ccc2ccccc2c1)NC(=O)[C@@H](Cc1ccc2ccccc2c1)NC(=O)CN)C(N)=O [G b b F K amide] (H-G[d2Nal][d2Nal]FK-NH2)			14.9	100	
NCCCC[C@H](NC(=O)[C@H](Cc1ccccc1)NC(=O)[C@@H](Cc1c[nH]c2ccccc12)NC(=O)[C@@H](Cc1ccc2ccccc2c1)NC(=O)CN)C(N)=O [G b w F K amide] (H-G[d2Nal][dW]FK-NH2)			0.8	4.8	
NCCCC[C@H](NC(=O)[C@H](Cc1ccccc1)NC(=O)[C@@H](Cc1c[nH]c2ccccc12)NC(=O)[C@@H](Cc1c[nH]c2ccccc12)NC(=O)CN)C(N)=O [G w w F K amide] (H-G[dW][dW]FK-NH2)			2.1	2.5	

Source: US7094869B2, “Low molecular weight peptidomimetic growth hormone secretagogues” (Genentech, Inc., priority 1994, dated 2006)
